Measured values reported in patent publication US20210253538A1, “AMINOPYRAZINES AND RELATED COMPOUNDS USEFUL AS MITOCHONDRIAL UNCOUPLERS” (VIRGINIA TECH INTELLECTUAL PROPERTIES, INC., priority 2018, published 2021).

Experiments:
[1] = system: whole cells (NMuLi, C2C12, and L6 cells, isolated cardiomyocytes, human primary fibroblasts); assay: Oxygen consumption rate (OCR) in whole cells, Seahorse XF-24 Flux Analyzer; assay type: cell-based
Protocol: Biological activities of the compounds synthesized is determined by determining increase in oxygen consumption rate (OCR).
Oxygen consumption rate (OCR) in whole cells is measured in general accordance with the method of Kenwood B M et al. (Mol. Met. (2014) 3: 114-123).
OCR is measured using a Seahorse XF-24 Flux Analyzer (Seahorse Biosciences, North Billerica, Mass.). NMuLi, C2C12, and L6 cells are seeded in a Seahorse 24-well tissue culture plate at a density of 3.5×10^4 cells/well, isolated cardiomyocytes at a density of 4×10^4 cells/well, and human primary fibroblasts at a density of 1.1×10^4 cells/well. The cells are then allowed to adhere for 24 h. Prior to the assay, the media is changed to unbuffered DMEM containing pyruvate and glutamine (Gibco #12800-017, pH=7.4 at 37° C.) and the cells are equilibrated for 30 mins at 37° C. Compounds are injected during the assay and OCR is measured using 2 min measurement periods.
2-3 wells are used per condition and averaged over three plates (n=6-9). Statistical significance is determined by two-way ANOVA with Bonferroni's posttest.

[2] = patients consuming ~300 mg/d, over several months, without changes in food intake; cited from earlier work

SMILES	increase in oxygen consumption rate (OCR) [1]	Average weight shed [2]
FC(F)(F)Oc1ccc(Nc2ncc(C(F)(F)F)nc2OCc2ccccc2)cc1 [Compound 3-18, 3-(Benzyloxy)-N-(4-(Trifluoromethoxy)Phenyl)-5-(Trifluoromethyl)Pyrazin-2-Amine]	observable activity	
Oc1nc(C(F)(F)F)cnc1Nc1ccc(OC(F)(F)F)cc1 [Compound 3-19, 3-((4-(Trifluoromethoxy)Phenyl)Amino)-6-(Trifluoromethyl)Pyrazin-2-Ol]	observable activity	
Oc1nc(-c2ccc(C(F)(F)F)cc2)cnc1Nc1ccc(OC(F)(F)F)cc1 [Compound 3-26, 3-((4-(Trifluoromethoxy)Phenyl)Amino)-6-(4-(Trifluoromethyl)Phenyl) Pyrazin-2-Ol]	observable activity	
O=[N+]([O-])c1ccc(O)c([N+](=O)[O-])c1 [DNP, 2,4-dinitrophenol]		1.5 pounds per week
